Drawing on patent US20260184707A1, “PHARMACEUTICAL COMPOUNDS FOR THE TREATMENT OF COMPLEMENT MEDIATED DISORDERS” (ALEXION PHARMACEUTICALS, INC., priority 2022, published 2026), this text covers IC50 for 22 compounds.

In the test the target is T1, Human complement C1s enzyme (Homo sapiens, UniProt P09871).
T1 construct: purified from human serum, Complement Technology, Inc; purchased Complement Technology, Inc; host or cells: human serum (plasma-derived native protein)
T1 sequence (P09871 438-688 limits assumed): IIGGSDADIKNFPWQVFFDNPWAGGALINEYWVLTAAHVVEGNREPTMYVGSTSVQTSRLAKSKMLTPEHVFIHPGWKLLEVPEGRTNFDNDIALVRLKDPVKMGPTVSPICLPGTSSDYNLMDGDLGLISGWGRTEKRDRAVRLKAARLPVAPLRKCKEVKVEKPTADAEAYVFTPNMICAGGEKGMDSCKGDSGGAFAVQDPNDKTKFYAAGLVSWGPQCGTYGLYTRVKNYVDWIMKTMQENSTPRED
T1 sequence (P09871 16-437 partner limits assumed): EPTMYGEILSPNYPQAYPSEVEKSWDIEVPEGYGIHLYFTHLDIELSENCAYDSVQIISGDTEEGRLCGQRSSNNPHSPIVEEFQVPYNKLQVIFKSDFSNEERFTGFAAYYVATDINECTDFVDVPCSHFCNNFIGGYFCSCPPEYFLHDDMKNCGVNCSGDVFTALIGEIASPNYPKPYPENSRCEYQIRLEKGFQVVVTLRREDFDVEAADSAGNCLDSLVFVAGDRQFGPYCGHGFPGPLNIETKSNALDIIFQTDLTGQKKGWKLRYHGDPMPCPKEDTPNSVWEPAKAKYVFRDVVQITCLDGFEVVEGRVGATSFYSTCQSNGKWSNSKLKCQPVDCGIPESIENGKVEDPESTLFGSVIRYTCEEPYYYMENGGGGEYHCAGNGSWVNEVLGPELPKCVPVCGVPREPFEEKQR
Put plainly: Human C1s enzyme assay. The class given is biochemical. To be noted: human complement C1s enzyme 1.16 nM, substrate Z-L-Lys-SBzl, A405; read-out: IC50 (Stars). In short, it runs like this:
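Serum-purified human C1s (1.16 nM final) preincubated 5 min at room temperature with compound in 50 mM Tris, 1 M NaCl, pH 7.5. Z-L-Lys-SBzl and DTNB added at 100 μM each; A405 recorded every 30 s. IC50 from nonlinear regression of reaction rates versus compound concentration.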

What is called IC50 is the concentration that inhibits the measured activity by half. As for `COc1ccc(-c2ncc(N[C@H](C)c3ccc4oc5ccccc5c4c3)c(=O)n2CC(=O)NCc2cc3cnccc3[nH]2)cc1` [Compound 248, (R)-N-((1H-pyrrolo[3,2-c]pyr-idin-2-yl)methyl)-2-(5-((1-(dibenzo[b,d]furan-2-yl)ethyl)-amino)-2-(4-methoxyphenyl)-6-oxopyrimidin-1(6H)-yl)-acetamide], the IC50 is below 100 nM.
As for `CO[C@@H]1CO[C@H]2[C@@H]1OC[C@H]2Oc1ccc(-c2ncc(NC(=O)c3ccc(-c4ccccc4)s3)c(=O)n2CC(=O)NCc2cc3cnccc3[nH]2)cc1` [Compound 249, N-(1-(2-(((1H-pyrrolo[3,2-c]pyridine-2-yl)methyl)amino)-2-oxoethyl)-2-(4-(((3R,3aR,6R,6aR)-6-methoxyhexahydrofuro[3,2-b]furan-3-yl)oxy)phenyl)-6-oxo-1,6-dihydropyrimidin-5-yl)-5-phenylthiophene-2-carboxamide], the figure is below 100 nM.
Turning to `O=C(Cn1c(-c2ccccc2)ncc(NCc2ccc(-c3ccccc3F)cc2)c1=O)NCc1cc2cnccc2[nH]1` [Compound 250, N-((1H-pyrrolo[3,2-c]pyridin-2-yl)methyl)-2-(5-(((2′-fluoro-[1,1′-biphenyl]-4-yl)methyl)amino)-6-oxo-2-phenylpyrimidin-1(6H)-yl)acetamide], the IC50 is below 100 nM.
Regarding `O=C(Cn1c(-c2cccs2)ncc(NCc2ccc3oc4ccccc4c3c2)c1=O)NCc1cc2cnccc2[nH]1` [Compound 251, N-((1H-pyrrolo[3,2-c]pyridin-2-yl)methyl)-2-(5-((dibenzo [b,d]furan-2-ylmethyl)amino)-6-oxo-2-(thiophen-2-yl)pyrimi-din-1(6H)-yl)acetamide], the IC50 was below 100 nM.
As for `O=C(Cn1c(-c2ccccn2)ncc(NCc2ccc3oc4ccccc4c3c2)c1=O)NCc1cc2cnccc2[nH]1` [Compound 252, N-((1H-pyrrolo[3,2-c]pyridin-2-yl)methyl)-2-(5-((dibenzo [b,d]furan-2-ylmethyl)amino)-6-oxo-2-(pyridin-2-yl)pyrimi-din-1(6H)-yl)acetamide], the figure is below 100 nM.
As for `O=C(Cn1c(C2CCCC2)ncc(NCc2ccc3oc4ccccc4c3c2)c1=O)NCc1cc2cnccc2[nH]1` [Compound 253, N-((1H-pyrrolo[3,2-c]pyridine-2-yl)methyl)-2-(2-cyclopentyl-5-((dibenzo[b,d]furan-2-ylmethyl)amino)-6-oxopyrimidin-1(6H)-yl)acetamide], the IC50 is below 100 nM.
Take `O=C(Cn1c(-c2ccccc2)ncc(NC(=O)C2CCC(c3ccccc3)CC2)c1=O)NCc1cc2cnccc2[nH]1` (stereo not shown) [Compound 254, N-(1-(2-(((1H-pyrrolo[3,2-c]pyridin-2-yl)methyl)amino)-2-oxoethyl)-6-oxo-2-phenyl-1,6-dihydropyrimidin-5-yl)-4-phen-ylcyclohexane-1-carboxamide]: the IC50 was below 100 nM.
As for `O=C(Cn1c(-c2ccc(S(F)(F)(F)(F)F)cc2)ncc(NCc2ccc3c(c2)-c2ccccc2C3(F)F)c1=O)NCc1cc2cnccc2[nH]1` [Compound 255, N-((1H-pyrrolo[3,2-c]pyridine-2-yl)methyl)-2-(5-(((9,9-difluoro-9H-fluoren-3-yl)methyl)amino)-6-oxo-2-(4-(pentafluoro-λ^6-sulfaneyl)phenyl)pyrimidin-1(6H)-yl)acetamide], the figure is below 100 nM.
On to `O=C(Cn1c(-c2ccccc2)ncc(NC(=O)c2ccc(-c3ccccc3)s2)c1=O)NCc1ccc(Cl)cc1` [Compound 256, N-(1-(2-((4-chlorobenzyl)-amino)-2-oxoethyl)-6-oxo-2-phenyl-1,6-dihydropyrimidin-5-yl)-5-phenylthiophene-2-carboxamide], for which the 50% inhibitory concentration (IC50) was above 1000 nM.
The figure for `COc1ccccc1-c1ccc(CNc2cnc(-c3ccccc3)n(CC(=O)NCc3cc4cnccc4[nH]3)c2=O)cc1` [Compound 257, N-((1H-pyrrolo[3,2-c]pyridin-2-yl)methyl)-2-(5-(((2′-meth-oxy-[1,1′-biphenyl]-4-yl)meth-yl)amino)-6-oxo-2-phenylpyr-imidin-1(6H)-yl)acetamide] is below 100 nM; for `O=C(Cn1c(-c2ccccc2)ncc(NCc2ccc(-c3ccccc3)s2)c1=O)NCc1cc2cnccc2[nH]1` [Compound 258, N-((1H-pyrrolo[3,2-c]pyridine-2-yl)methyl)-2-(6-oxo-2-phenyl-5-(((5-phenylthiophen-2-yl)methyl)amino)pyrimidin-1(6H)-yl)acetamide] it is below 100 nM; for `O=C(Cn1c(-c2ccccc2)ncc(NCc2ccc3sc4ccccc4c3c2)c1=O)NCc1cc2cnccc2[nH]1` [Compound 259, N-((1H-pyrrolo[3,2-c]pyridin-2-yl)methyl)-2-(5-((dibenzo [b,d]thiophen-2-ylmethyl)-amino)-6-oxo-2-phenylpyrimi-din-1(6H)-yl)acetamide] it is below 100 nM.
`O=C(Cn1c(N2CCOCC2)ncc(NCc2ccc3oc4ccccc4c3c2)c1=O)NCc1cc2cnccc2[nH]1` [Compound 260, N-((1H-pyrrolo[3,2-c]pyridin-2-yl)methyl)-2-(5-((dibenzo [b,d]furan-2-ylmethyl)amino)-2-morpholino-6-oxopyrimidin-1(6H)-yl)acetamide]: the IC50 is below 100 nM.
As for `O=C(Cn1c(N2CCCCC2)ncc(NCc2ccc3oc4ccccc4c3c2)c1=O)NCc1cc2cnccc2[nH]1` [Compound 261, N-((1H-pyrrolo[3,2-c]pyridin-2-yl)methyl)-2-(5-((dibenzo [b,d]furan-2-ylmethyl)amino)-6-oxo-2-(piperidin-1-yl)pyrimi-din-1(6H)-yl)acetamide], the figure is below 100 nM; as for `CO[C@@H]1CO[C@H]2[C@@H]1OC[C@H]2Oc1ccc(-c2ncc(NC(=O)c3cnc(-c4ccccc4)s3)c(=O)n2CC(=O)NCc2cc3cnccc3[nH]2)cc1` [Compound 262, N-(1-(2-(((1H-pyrrolo[3,2-c]pyridine-2-yl)methyl)amino)-2-oxoethyl)-2-(4-(((3R,3aR,6R,6aR)-6-methoxyhexahydrofuro[3,2-b]furan-3-yl)oxy)phenyl)-6-oxo-1,6-dihydropyrimidin-5-yl)-2-phenylthiazole-5-carboxamide], below 100 nM; as for `O=C(Cn1c(-c2ccc(O[C@@H]3CO[C@H]4[C@@H]3OC[C@H]4O)cc2)ncc(NC(=O)c2cnc(-c3ccccc3)s2)c1=O)NCc1cc2cnccc2[nH]1` [Compound 263, N-(1-(2-(((1H-pyrrolo[3,2-c]pyridine-2-yl)methyl)amino)-2-oxoethyl)-2-(4-(((3R,3aR,6R,6aR)-6-hydroxyhexahydrofuro[3,2-b]furan-3-yl)oxy)phenyl)-6-oxo-1,6-dihydropyrimidin-5-yl)-2-phenylthiazole-5-carboxamide], below 100 nM.
`O=C(Cn1c(-c2ccc(O[C@@H]3CO[C@H]4[C@@H]3OC[C@H]4O)cc2)ncc(NC(=O)c2ccc(-c3ccccc3)s2)c1=O)NCc1cc2cnccc2[nH]1` [Compound 264, N-(1-(2-(((1H-pyrrolo[3,2-c]pyridin-2-yl)methyl)amino)-2-oxoethyl)-2-(4-(((3R,3aR,6R, 6aR)-6-hydroxyhexahydrofuro [3,2-b]furan-3-yl)oxy)phenyl)-6-oxo-1,6-dihydropyrimidin-5-yl)-5-phenylthiophene-2-carboxamide]: the IC50 is below 100 nM.
As for `C[C@H](Nc1cncn(CC(=O)NCc2cc3cnccc3[nH]2)c1=O)c1ccc2oc3ccccc3c2c1` [Compound 265, (S)—N-((1H-pyrrolo[3,2-c]pyridine-2-yl)methyl)-2-(5-((1-(dibenzo[b,d]furan-2-yl)ethyl)amino)-6-oxopyrimidin-1(6H)-yl)acetamide], the IC50 is below 100 nM.
The figure for `O=C(NCCOc1nc(-c2ccccc2)ncc1NCc1ccc2oc3ccccc3c2c1)c1cc2cnccc2[nH]1` [Compound 266, N-(2-((5-((dibenzo[b,d]furan-2-ylmethyl)amino)-2-phenyl-pyrimidin-4-yl)oxy)ethyl)-1H-pyrrolo[3,2-c]pyridine-2-carboxamide] is above 1000 nM.
As for `O=C(NCCn1c(-c2ccccc2)ncc(NCc2ccc3oc4ccccc4c3c2)c1=O)c1cc2cnccc2[nH]1` [Compound 267, N-(2-(5-((dibenzo[b,d]furan-2-ylmethyl)amino)-6-oxo-2-phenylpyrimidin-1(6H)-yl)-ethyl)-1H-pyrrolo[3,2-c]pyr-idine-2-carboxamide], the figure is above 1000 nM; as for `O=C(COc1cc(C(=O)NCc2ccc3oc4ccccc4c3c2)nc(-c2ccccc2)n1)NCc1cc2cnccc2[nH]1` [Compound 268, 6-(2-(((1H-pyrrolo[3,2-c]pyridine-2-yl)methyl)amino)-2-oxoethoxy)-N-(dibenzo[b,d]furan-2-ylmethyl)-2-phenylpyrimidine-4-carboxamide], above 1000 nM.
The figure for `Cc1nc(-c2ccccc2)nc(OCC(=O)NCc2cc3cnccc3[nH]2)c1NCc1ccc2oc3ccccc3c2c1` [Compound 269, N-((1H-pyrrolo[3,2-c]pyridine-2-yl)methyl)-2-((5-((dibenzo[b,d]furan-2-ylmethyl)amino)-6-methyl-2-phenylpyrimidin-4-yl)oxy)acetamide] is above 1000 nM.
